According to patent US7335735B2, “Intracellular estradiol binding protein” (Cedars-Sinai Medical Center, priority 2003, dated 2008):
“Also recorded” adds a separate entry of the source. Each block holds one molecule with its values, some of them ahead of it.

Assays:
[1] = system: ERE-directed transactivation; test: ERE-promoter-reporter luciferase assay, transient co-transfection; format: cell-based, Old World primate
hsp27 = test: Western blot analysis of hsp27 expression in wild-type breast cells; format: cell-based, Old World primate; conditions: wild-type control cells, Western blot with anti-hsp27 antibody
glucocorticoid receptors = conditions: New World primate cells; cited from earlier work
[2] = system: ERE-directed transactivation; test: ERE luciferase reporter assay in cells stably transfected with IEBP; format: cell-based, Old World primate; conditions: stable transfectants compared with wild-type cells
Method: E2-responsive OWP breast cells from cell line 6299 were incubated with 5.0 ug pcDNA3.1/v5-His-TOPO IEBP plasmid in LIPOTAXI solution for 5 hours followed by the addition of equal volume of 20% FCS-supplemented medium. After incubation overnight, cells were split (1:10 ratio) and incubated with fresh medium containing 500 ug/ml of the geneticin-selective antibiotic G418 sulfate (Life Technology; Grand Island, N.Y.). This medium was replaced every 3-4 days, until stable colonies formed. Single colonies were picked, transferred into a new dish, and incubated with medium containing selection antibiotic G418 until confluence for further study.
Experiments were therefore carried out to clarify whether the overexpression of IEBP antagonized, facilitated, or did nothing to estrogen-induced transactivation. Estrogen-responsive Old World primate cells were transiently co-transfected with IEBP cDNA and an ERE-promoter-reporter construct. After transfection, ERE-directed luciferase activity was reduced 50% compared to vector alone-transfected Old World primate cells. […] Similar results were also obtained following stable transfection of IEBP into Old World primate cells. Increased expression of IEBP in these cells was confirmed by Western blot analyses using an anti-hsp27 antibody.

ERE = test: Electrophoretic mobility shift analysis (EMSA) with idealized ERE as probe; format: binding; conditions: postnuclear extracts from OWP-IEBP stable transfectant clone 1, recombinant ERα
Method: This is believed to be due, at least in part, to enhanced binding of estrogens. To determine whether IEBP also functions as a direct competitor for ERE-binding, the inventors carried out electrophoretic mobility shift analyses (EMSAs) using an idealized ERE as a probe with recombinant ERα and/or postnuclear extracts from OWP-IEBP stable transfectant clone 1 as binding proteins. […] To assess this possibility, coimmunoprecipitation was performed by using anti-ERα and anti-hsp27 antibodies. Antihuman ERα antibodies were used to immunoprecipitate […] proteins in postnuculear extracts of both wild-type and IEBP-stably-transfected cells. The immunoprecipitates were subjected to Western blot analysis by using hsp27 antibodies. Data confirmed association between ERα and hsp27. Similar results were also obtained following initial immunoprecipitation with hsp27, and subsequent ERα blotting.

effect on ERE-mediated transcription ([1]; transient transfectants, E2 pre-treatment in control cells): stimulated ERE-mediated transcription
Molecule: C[C@]12CC[C@@H]3c4ccc(O)cc4CC[C@H]3[C@@H]1CC[C@@H]2O [E2, 17β-estradiol]
hsp27 expression (hsp27): stimulated hsp27 expression in a dose-dependent fashion; also recorded: strongly increased hsp27 expression

Molecule: FKBP51: heat-shock protein (hsp)90-associated FK 506-binding immunophilin
inhibition of ligand binding to glucocorticoid receptors (glucocorticoid receptors): 74%

reduction of ERE-directed luciferase activity ([1]; transient co-transfection of cDNA and ERE-promoter-reporter construct, compared to vector alone-transfected Old World primate cells): 50%
B1: IEBP: novel hsp27-related intracellular estradiol binding protein from New World primate B95-8 cells, SEQ ID NO:1 (protein, listed as Homo sapiens)
chain: MTERHVPFSLLQSPSWDPFRDWYPHSHLFDQAFGMPRLPEEWSQWFGTSSWPGYVRPLPPTTVEGPAVAAPAYSRALNQQLSSGVSETADRWRVSLDVNHFAPEELTVKTKDGVVEITGKHEERQDEHGFISRCFTRKYSLPPGVDPTQVSPSLSPEGTLTVDAPMSKPATQSNEITIPVTFESRAQLGGPEAAKSDRSAAK
decrease of ERE luciferase reporter activity [2]: 2-3 fold
binding to ERE and competition with ERα for ERE (ERE): neither bound to ERE nor competed with the ERα for binding to ERE
